Measured values reported in ChEMBL document CHEMBL6103651, “Total Syntheses, Absolute Configuration, and Cytotoxicity Evaluation of Ugonins L, S, U, and Z from the Rhizomes of Helminthostachys zeylanica” (J Nat Prod, 2025).

How the values were obtained:
[1] = system: HT-29; assay: Cytotoxicity against human HT-29 cells assessed as cell growth inhibition incubated for 6 hrs by SRB assay; format: functional, cell-based; settings: HT-29, 6 h
[2] = system: MCF7; assay: Cytotoxicity against human MCF7 cells assessed as cell growth inhibition incubated for 6 hrs by SRB assay; format: functional, cell-based; settings: MCF7, 6 h
[3] = system: CCRF-CEM; assay: Cytotoxicity against human CEM cells assessed as cell growth inhibition incubated for 6 hrs by SRB assay; format: functional, cell-based
[4] = Cytotoxicity against fibroblasts (unknown origin) assessed as cell growth inhibition incubated for 6 hrs by SRB assay; format: toxicity, cell-based, Fibroblast
[5] = system: NCI-H460; assay: Cytotoxicity against human NCI-H460 cells assessed as cell growth inhibition incubated for 6 hrs by SRB assay; format: functional, cell-based; settings: NCI-H460, 6 h

SMILES	IC50 [1]	IC50 [2]	IC50 [3]	IC50 at 6 h [4]	IC50 [5]
CC1(C)CCC[C@]2(C)Oc3c(c(O)cc4oc(-c5ccc(O)c(O)c5)cc(=O)c34)C[C@@H]12	24.5 µM	6.5 µM	4.2 µM	24.5 µM	–
CC1(C)CCC[C@@]2(C)Oc3c(c(O)cc4oc(-c5ccc(O)c(O)c5)cc(=O)c34)C[C@H]12	36 µM	17.7 µM	4.8 µM	36 µM	–
CC1(C)CCC[C@]2(C)Oc3cc4oc(-c5ccc(O)c(O)c5)cc(=O)c4c(O)c3C[C@H]12	21.9 µM	16.7 µM	4.2 µM	24.5 µM	2.2 µM
CC1(C)CCC[C@@]2(C)Oc3cc(O)c4c(=O)cc(-c5ccc(O)c(O)c5)oc4c3C[C@@H]12	27.5 µM	28.2 µM	16.4 µM	27.5 µM	18.3 µM
CC1(C)CCC[C@@]2(C)Oc3c(c(O)cc4oc(-c5ccc(O)c(O)c5)cc(=O)c34)C[C@@H]12 [UGONIN S]	21.9 µM	8.8 µM	6.2 µM	21.9 µM	–
CC1(C)CCC[C@]2(C)Oc3cc(O)c4c(=O)cc(-c5ccc(O)c(O)c5)oc4c3C[C@H]12	33.2 µM	26 µM	1.7 µM	33.2 µM	17.5 µM
CC1(C)CCC[C@@]2(C)Oc3cc4oc(-c5ccc(O)c(O)c5)cc(=O)c4c(O)c3C[C@@H]12	37.1 µM	19.1 µM	5.2 µM	37.1 µM	7.1 µM
CC1(C)CCC[C@]2(C)Oc3c(c(O)cc4oc(-c5ccc(O)c(O)c5)cc(=O)c34)C[C@H]12	34.1 µM	18.9 µM	5.9 µM	34.1 µM	–
COc1cccc2c1C(=O)c1c(O)c3c(c(O)c1C2=O)C[C@@](O)(C(=O)CO)C[C@@H]3O[C@H]1C[C@H](N)[C@H](O)[C@H](C)O1 [DOXORUBICIN]	0.23 µM	0.54 µM	0.11 µM	56.3 µM	0.01 µM
